The results in this text go back to PubChem BioAssay AID1996.

In brackets after ≈: the same amount, converted by molar mass.

For this series the following is noted: buffer; pH 7.4; 200.0 µM.
A word on the solubility (kinetic): it is solubility judged after dilution from a stock solution rather than from solid. With `COc1ccc(-c2csc(Nc3cccc(C)n3)n2)cc1`, the kinetic solubility was under 0.2 µg/mL.
The figure for `CSc1nc2c(cc1C#N)CCC2` is 5.1 µg/mL (≈ 26.8 µM).
`COc1cccc(C(=S)N2CCCC2)c1OC`: the solubility (kinetic) came out at 35.3 µg/mL (≈ 140 µM).
The figure for `CC(=O)c1ccc(S(=O)(=O)NCC(=O)NC(c2nc3ccccc3[nH]2)C(C)C)cc1` (centres undefined) is over 64.3 µg/mL; for `COc1ccccc1NC(=O)c1ccccc1C(=O)N(C)Cc1ccccc1` it is 1.3 µg/mL (≈ 3.47 µM); for `O=C(Cc1ccccc1)Nc1ccc(C(=O)NCc2ccccc2)cc1` it is under 0.4 µg/mL.
Take `COc1ccc(NC(=O)CSc2nnc(-c3cccnc3)n2C)cc1`: the solubility (kinetic) is over 53.3 µg/mL.
In turn, `Oc1cc2c(cc1CN1CCN(c3ccccc3)CC1)OCO2` had a solubility (kinetic) of 17.6 µg/mL (≈ 56.3 µM).
The figure for `CCC(C)C(NC(N)=O)C(=O)Nc1ccc(C(=O)OC)cc1` (centres undefined) is over 46.1 µg/mL; for `COc1ccc(NC(=O)c2ccco2)cc1NC(=O)c1ccccc1` it is 4.9 µg/mL (≈ 14.6 µM).
With `Cc1onc(-c2ccccc2)c1C(=O)N(Cc1ccccn1)Cc1ccccn1` the figure was over 57.7 µg/mL; with `Cc1ccc(N2CCCC2=O)cc1S(=O)(=O)N1CCOCC1`, over 48.7 µg/mL.
The figure for `CCCCN(CCCC)CCCOC(=O)c1ccc(N)cc1` is over 46 µg/mL; for `CCC(=O)c1ccc(OCC(=O)NCCc2ccccn2)cc1` it is over 46.9 µg/mL.
The compound `O=C(Cc1ccccc1)Nc1ccc(Cl)cn1` had a solubility (kinetic) of 21.5 µg/mL (≈ 87.2 µM).
Regarding `O=C(COC(=O)c1cc(=O)[nH]c2ccccc12)Nc1ccc(F)cc1F`, the solubility (kinetic) was determined as 13.7 µg/mL (≈ 38.2 µM).
With `CC(=O)c1cccc(S(=O)(=O)N2CCC(C(=O)O)CC2)c1`, the kinetic solubility is over 46.7 µg/mL.
`Cc1ccc(-c2cc3ccccc3nc2N)cc1` had a solubility (kinetic) of 4 µg/mL (≈ 17.1 µM).
For the compound `O=C(Nc1nc(-c2ccccc2)cs1)c1ccco1`, the kinetic solubility amounted to 22.3 µg/mL (≈ 82.5 µM).
With `O=C(CCNC(=O)c1ccco1)Nc1ccc(C(F)(F)F)cc1` the figure was 23.4 µg/mL (≈ 71.7 µM).
The figure for `CN(C)c1cccc(N(C)C)c1CNC(=O)NC(=O)c1c(F)cccc1F` is 0.3 µg/mL (≈ 0.797 µM).
`O=CN1CCN(CC(O)Cn2c3ccccc3c3ccccc32)CC1` (centres undefined): the solubility (kinetic) came out at 43.3 µg/mL (≈ 128 µM).
The figure for `Cc1ccc(/C=N/NC(=O)c2cccnc2)o1` is over 34.4 µg/mL; for `NC(=O)c1oc2ccccc2c1NC(=O)C1COc2ccccc2O1` (centres undefined) it is under 0.4 µg/mL.
The figure for `COc1ccccc1NCCC(=O)OCC(=O)Nc1ccccc1F` is over 52 µg/mL.
With `O=C(CNC(=O)C1CCCCC1)OCC(=O)c1cccc(Cl)c1` the figure was 46.8 µg/mL (≈ 139 µM); with `CC1(C)Cc2ccccc2C(/C(C#N)=N/O)=N1`, over 34.1 µg/mL; with `COC(=O)c1c(C)oc(C)c1S(=O)(=O)NC(C)(C)C`, over 43.4 µg/mL.
With `Cc1cccc(C)c1NC(=O)COC(=O)C1CC1`, the solubility (kinetic) came out at 32.7 µg/mL (≈ 132 µM).
As for `CC(C)OC(=O)/C(=C\c1cccnc1)NC(=O)c1ccccc1`, the solubility (kinetic) was over 46.6 µg/mL.
In turn, `CCc1sc(C(=O)Nc2ccc3c(c2)OCO3)cc1C` displayed a solubility (kinetic) of 4.9 µg/mL (≈ 16.9 µM).
The figure for `O=C(COc1ccc2c(c1)OCO2)Nc1ccc(Cl)cn1` is 1.3 µg/mL (≈ 4.24 µM).
The figure for `Cc1ccc(CNC(=O)c2cccnc2)cc1` is over 33.9 µg/mL.
Compound `FC(F)(F)c1ccccc1-c1nc(-c2ccncc2)no1` returned a solubility (kinetic) of 7.6 µg/mL (≈ 26.1 µM).
For `CCC(C)C12CN3CCN(CC(C)(C3)C1O)C2` (centres undefined), the kinetic solubility was over 35.8 µg/mL.
The figure for `CN1CCN(S(=O)(=O)c2ccc([N+](=O)[O-])cc2)CC1` is over 42.8 µg/mL.
With `CCOC(=O)C1CCCN(S(=O)(=O)c2c(C)noc2C)C1` (centres undefined) the figure was over 47.5 µg/mL.
The figure for `COc1ccccc1CNC(=O)/C=C/C(=O)O` is over 35.3 µg/mL; for `CC1COC(Cn2c3ccccc3c3ccccc32)O1` (centres undefined) it is 12.1 µg/mL (≈ 45.3 µM); for `CNC(=O)Cc1csc2ccc(C)cc12` it is 30.4 µg/mL (≈ 139 µM).
`Cc1ccc(NC(=O)C2CCCN2C(=O)NCc2ccccc2)cc1` (centres undefined) came in with a kinetic solubility of 5 µg/mL (≈ 14.8 µM).
The figure for `CCCn1c(SCC(=O)Nc2ccc(Cl)cc2)n[nH]c1=O` is over 49 µg/mL; for `Nc1ccc2nc(CCCCCCc3nc4ccc(N)cc4[nH]3)[nH]c2c1` it is over 52.3 µg/mL; for `Cc1csc(=O)n1CC(=O)Nc1ccc(S(C)(=O)=O)cc1` it is over 49 µg/mL.
With `CCc1ccc2oc(C(=O)Nc3nonc3CC)c(C)c2c1` the figure was under 0.2 µg/mL; with `COc1ccc(N(Cc2cc(=O)[nH]c3ccccc23)C(C)=O)cc1`, over 48.4 µg/mL; with `Cc1ccc(NC(=O)CC(=O)Nc2ccc(C)c(C)c2)cc1C`, under 0.3 µg/mL.
Turning to `CCCCCn1cc(C(=O)C(=O)N2CCOCC2)c2ccccc21`, the solubility (kinetic) was determined as 46.8 µg/mL (≈ 143 µM).
The compound `Oc1c(I)cc(Cl)c2cccnc12` yielded a kinetic solubility of 0.8 µg/mL (≈ 2.62 µM).
The figure for `CCc1ccc(NC(=S)NCC2CCCN2CC)cc1` (centres undefined) is over 43.7 µg/mL; for `CC1CC(NC(=O)/C=C/C(=O)O)CC(C)(C)C1` (centres undefined) it is over 35.9 µg/mL.
For `Cc1cc(F)ccc1NC(=O)c1cccnc1`, the kinetic solubility was over 34.5 µg/mL.
For `NS(=O)(=O)c1ccc(CNC(=O)c2cc(=O)c3ccccc3o2)cc1`, the kinetic solubility is 1.7 µg/mL (≈ 4.74 µM).
As for `CNc1nc(-c2ccc(S(=O)(=O)N3CCCCC3)cc2)cs1`, the solubility (kinetic) came to 2.8 µg/mL (≈ 8.3 µM).
For `N#Cc1ccccc1NC(=O)CN1C(=O)NC2(CCCC2)C1=O`, the kinetic solubility is over 46.8 µg/mL.
The figure for `COc1ccc(C(=O)O)cc1S(=O)(=O)NC(C)(C)C` is over 43.1 µg/mL; for `O=C(COc1ccc(Br)cc1)N(CCO)CCO` it is 34.5 µg/mL (≈ 108 µM).
The figure for `CN(Cc1ccccc1)S(=O)(=O)c1ccc(Cl)c(C(=O)N2CCC(C(N)=O)CC2)c1` is over 67.5 µg/mL.
`CCOc1ccccc1NC(=O)NC1CCCc2ccccc21` (centres undefined) gave a kinetic solubility of 0.5 µg/mL (≈ 1.61 µM).
`COc1ccc(C(C)=O)cc1CC(=O)NC1CCCCCC1`: the kinetic solubility was found to be 39.2 µg/mL (≈ 129 µM).
In turn, `COc1cccc(OCCNC(=O)Nc2cc(F)c(F)cc2Cl)c1` returned a solubility (kinetic) of under 0.4 µg/mL.
Turning to `Cc1ccc(CSc2nccc(-c3c(C)nc4ccccn34)n2)cc1`, the kinetic solubility was 1.6 µg/mL (≈ 4.62 µM).
`CC(C)c1ccc(/C=C/C(=O)NCc2ccc(S(N)(=O)=O)cc2)cc1` yielded a solubility (kinetic) of 5.1 µg/mL (≈ 14.2 µM).
Turning to `Cc1cc(NC(=O)CCCn2cnc([N+](=O)[O-])n2)no1`, the solubility (kinetic) was over 42 µg/mL.
`CN(CC(=O)O)S(=O)(=O)c1ccc2[nH]c(=O)c(=O)[nH]c2c1` registered a kinetic solubility of over 47 µg/mL.
With `O=C(/C=C/c1ccc([N+](=O)[O-])cc1)OCC(=O)N1CCOCC1` the figure was 10.1 µg/mL (≈ 31.5 µM).
`CCOc1ccc(Nc2ncnc3ccc([N+](=O)[O-])cc23)cc1`: the kinetic solubility is 4.1 µg/mL (≈ 13.2 µM).
The figure for `C=CCNC(=S)N/N=C(\C)c1cccc(NC(C)=O)c1` is over 43.6 µg/mL; for `Cc1ccc(CNCc2ccc3c(c2)OCO3)cc1` it is 32.5 µg/mL (≈ 127 µM).
The compound `C/C(=N/NC(=O)c1ccccn1)c1ccncc1` gave a solubility (kinetic) of over 36 µg/mL.
For `Cc1cc(C(=O)O)ccc1N=Cc1c(O)ccc2ccccc12`, the kinetic solubility was over 45.8 µg/mL.
With `COC(=O)c1[nH]c2c(c1C)C(=O)CC(c1ccc(OC)c(OC)c1)C2` (centres undefined) the figure was 2.1 µg/mL (≈ 6.12 µM); with `Cc1nc2cc(NCc3cccs3)ccc2n1C`, 31.9 µg/mL (≈ 124 µM); with `CC(=O)N1CC(=O)Nc2ccc(F)cc2C1c1ccccc1` (centres undefined), over 44.7 µg/mL.
Compound `Cc1c(C(=O)N2CCCC(C(F)(F)F)C2)oc2ccccc12` (centres undefined) returned a kinetic solubility of 31.8 µg/mL (≈ 102 µM).
The figure for `O=C1C=C(NC2CCCC2)CC(c2ccccc2)C1` (centres undefined) is over 38.3 µg/mL; for `CCOc1ccc(C(=O)Cn2cnc3ccccc3c2=O)cc1` it is 8.5 µg/mL (≈ 27.6 µM); for `Cn1c(=S)oc2ccccc21` it is 14.9 µg/mL (≈ 90.2 µM).
With `Cc1ccc(C)n1-c1ccc(N2CCOCC2)c([N+](=O)[O-])c1`, the kinetic solubility turned out to be 29.3 µg/mL (≈ 97.2 µM).
For the compound `CC(C)(C)NC(=O)Cn1c(Cl)nc2ccccc21`, the kinetic solubility was over 39.9 µg/mL.
With `CCCS(=O)(=O)C/C(N)=N/OC(=O)c1ccc(Cl)cc1` the figure was 34.3 µg/mL (≈ 108 µM); with `Cn1c(C2CCCCC2)nc2ccccc21`, over 32.1 µg/mL.
With `C=CCn1cccc(C(=O)Nc2ccc(Cl)cc2)c1=O` the figure was 3.4 µg/mL (≈ 11.8 µM); with `CCS(=O)(=O)c1ccc(O)c(NC(=O)c2cc(-c3ccccn3)nc3ccccc23)c1`, over 65 µg/mL; with `COc1ccc(N2C(=O)CSC2c2ccc(F)cc2)cc1` (centres undefined), over 45.5 µg/mL.
With `Cc1c(O)nc(SC2CC(=O)N(c3cc(Cl)cc(Cl)c3)C2=O)[nH]c1=O` (centres undefined) the figure was over 60 µg/mL; with `CC(C)CC1C(C#N)=C(N)OC2=C1C(=O)CC(c1ccccc1)C2` (centres undefined), 37.6 µg/mL (≈ 117 µM).
Consider `Cc1cc(C(=O)N2CCN(c3ccccc3O)CC2)c(C)o1`, for which the kinetic solubility was over 45.1 µg/mL.
On to `CC(=O)Cc1nsc(Nc2ccc(C)cc2)n1`, for which the kinetic solubility is 35.9 µg/mL (≈ 145 µM).
`CC(OC(=O)c1cc2sccc2n1C)C(=O)NC(C)(C)C` (centres undefined) yielded a solubility (kinetic) of over 46.3 µg/mL.
The figure for `O=C(O)c1ccc2c(c1)C(=O)N(c1ccc(C(=O)OCC(=O)c3ccccc3)cc1)C2=O` is 45.4 µg/mL (≈ 106 µM); for `O=C1/C(=C/c2cccs2)SC(=S)N1C1CCS(=O)(=O)C1` (centres undefined) it is under 0.7 µg/mL; for `COc1ccccc1NC(=S)NC(=O)/C=C/c1cccs1` it is 0.4 µg/mL (≈ 1.26 µM).
With `COc1ccc(NC(=O)/C=C/c2cccc(C(F)(F)F)c2)cn1` the figure was 5.3 µg/mL (≈ 16.4 µM); with `CC(=O)OCCCN(C)CC/C=C1/c2ccccc2CSc2ccccc21.Cl`, 53.8 µg/mL; with `O=C(COC(=O)c1cc(Cl)ccc1[N+](=O)[O-])NC1CC1`, over 44.8 µg/mL.
With `O=C(Nc1cccnc1)c1cc2cc(Br)ccc2o1` the figure was 0.9 µg/mL (≈ 2.84 µM).
In turn, `COc1ccc(-c2noc(CN(C)C(=O)c3ccoc3C)n2)cc1OC` had a kinetic solubility of 43.3 µg/mL (≈ 121 µM).
`O=C(Cn1nc(Cl)nc1Cl)c1ccc([N+](=O)[O-])cc1` showed a solubility (kinetic) of over 45.2 µg/mL.
The figure for `O=C(CCCC(=O)NC1CCCCC1)Nc1ccc([N+](=O)[O-])cc1` is 12 µg/mL (≈ 36 µM); for `OC(COc1ccc(Cl)cc1)CN1CCN(c2ccccn2)CC1` (centres undefined) it is 33.8 µg/mL (≈ 97.2 µM); for `COc1ccc(OC)c(N=C(N)N=C(N)N)c1` it is over 35.6 µg/mL.
With `O=C(c1cnccn1)N1CCN(S(=O)(=O)c2cccc(Cl)c2)CC1` the figure was over 55 µg/mL.
`CC(=O)Nc1cccc(-c2cc(-c3c(Cl)cccc3Cl)no2)c1` had a solubility (kinetic) of 3.7 µg/mL (≈ 10.7 µM).
